Key:
[1] = test system: human renal cancer cells ACHN; experiment: XTT cell proliferation assay, ACHN; format: cell-based; details: 5 days incubation, read-out: Antiproliferative activity, Kidney ACHN
Procedure: (§1) Exemplary compounds 1-8 were tested for anti-cancer activity in vitro using human renal cancer cells (ACHN and CAK-1), human pancreatic cells (BXPC3 and SU-86-86), human prostate cancer cell (DU14), human colon carcinoma cells (HT-29 and KM-12), leukemia cells (HL60), brain cancer/tumour cells (SK-A-AS, U87-MG), and human non-small cell lung cancer cells (H460). Compounds 1-8 are the specific embodiments of Formula (I) and Formula (IV) as described above in this application.
(§2) The cells were maintained as a monolayer in a growth medium; McCoy's 5A modified medium (Sigma, St. Louis, Mo.), supplemented with 2 mM L-glutamine (Gibco, Grand Island, N.Y.), 10% fetal bovine serum (FBS) (Multicell, WISENT Inc. St-Bruno, QC), antibiotic-antimycotic (Multicell), at 37° C. in a 5% CO2-humidified incubator. Cells were transferred onto 150 mm tissue culture plates and grown until sub-confluency (70-80%) prior to their use. The in vitro antiproliferative activity of compounds was evaluated by incubating the cells with varying concentrations of exemplary compounds as shown in Table 1 for 5 days. The efficacy of these compounds in this cell proliferation assay was measured based in the ability of live cells to reduce the tetrazolium salt XTT to orange colored compounds of formazan (XTT cell proliferation kit IT, Roche Applied Science, Montreal, QC).

[2] = test system: non-small cell lung cancer cells HOP-92; experiment: XTT cell proliferation assay, HOP-92; format: cell-based, human; details: 5 days incubation, read-out: Antiproliferative activity, NSCLC HOP-92
Procedure: [The procedure below names another cell line; the source lists this cell line under the same test.] as §1, §2

[3] = test system: brain cancer/tumour cells SK-N-AS; experiment: XTT cell proliferation assay, SK-N-AS; format: cell-based, human; details: 5 days incubation, read-out: Antiproliferative activity, Brain SK-N-AS
Procedure: as §1, §2

[4] = test system: non small cell lung cancer (H460); experiment: Non small cell lung cancer (H460) xenograft model; format: in vivo, CD-1 female nude mice; details: large-cell lung carcinoma H460; vs vehicle-treated control; FIG. 6
Procedure: The ability of compound 1 to inhibit colon tumour growth in vivo was tested as follows. CD-1 female nude mice (7 mice per treatment group, 6-7 weeks) were injected […] with human colon adenocarcinoma cells HT-29 cells (3×10^6 cells in 0.1 ml PBS). Treatment of the mice with vehicle or 50 mg/kg/d of […] was initiated 5 days post-inoculation (size of tumours=20-40 mm^3) for 7-day cycles of five days followed by a 2 day break for 5 weeks. The size of the tumours was measured over the course of the experiment using calipers, and the weight of the tumours was measured after the animals were sacrificed.
The ability of compound 1 to inhibit renal cell carcinoma growth (see FIG. 4), to inhibit pancreatic carcinoma growth (FIG. 5), to inhibit large-cell lung carcinoma cell growth (FIG. 6), and to inhibit Glioblastoma cell growth (FIG. 7) was also tested following the general procedure as discussed above.

leukemia cells HL60 = experiment: XTT cell proliferation assay, HL60; format: cell-based, human; details: 5 days incubation, read-out: Antiproliferative activity, Leuk. HL60
Procedure: as §1, §2

[5] = test system: brain cancer/tumour cells U87-MG; experiment: XTT cell proliferation assay, U87-MG; format: cell-based, human; details: 5 days incubation, read-out: Antiproliferative activity, Brain U87-MG
Procedure: as §1, §2

[6] = test system: human Burkitt's lymphoma Ramos cells; experiment: Cell growth inhibition assay, Ramos; format: cell-based; details: five days of incubation, XTT; read-out: IC50 Ramos (hs)
Procedure: (§3) In this study, compounds 1-8 were screened in vitro against a panel of four mouse lymphoma cell lines and two human lymphoma cell line for cell growth inhibition activity. Following treatment, half maximal inhibitory concentrations (IC50) were determined with the objective of selecting the most efficacious compounds for evaluation of in vitro absorption, distribution, metabolism, and excretion (ADME) screening.
(§4) Similarly, human Burkitt's lymphoma Ramos cells (ATCC CRL-1596) were grown in suspension in Roswell Park Memorial Institute (RPMI) 1640 medium supplemented with 10% fetal bovine serum (FBS), 10 mM HEPES KOH pH 7.4, and 2 mM sodium pyruvate. Mouse P388D1 (ATCC CCL-46) and WR19L (ATCC TIB-52) cells were grown in suspension in Dulbecco's Modified Eagle Medium (DMEM) with 10% fetal bovine serum (FBS), 10 mM HEPES, and 2 mM sodium pyruvate. Mouse WEHI231 (ATCC CRL-1702) and EL4 (ATCC TIB-39) cells were grown in suspension in DMEM with 10% fetal bovine serum (FBS), 10 mM HEPES KOH pH 7.4, 2 mM sodium pyruvate, and 0.05 mM β-mercaptoethanol. All cells were maintained at 37° C. in an atmosphere of 5% CO2 in air. Logarithmically growing cells were routinely sub-cultured twice weekly. Briefly, cells were collected by centrifugation, resuspended in pre-warmed media, and diluted 1:10 into a 75 cm^2 flask.
(§5) Cells were subcultured and 4×10^3 cells (in 50 μL) were transferred to each well in a Falcon 96-well tissue culture plate. Exemplary compounds were dissolved in pure dimethyl sulphoxide (DMSO) at a concentration of 10 mM. From this 10 mM stock solution, 12 successive serial dilutions were made in DMSO (2.5 fold dilutions), ranging from 0.52 μM to 10 mM. Using these stock dilutions, 5 μL of each were added to 500 μL of media, and 50 μL of this was added to the cells. The final concentrations being tested ranged from 0.0026 μM to 50 μM. Each concentration was tested in triplicate, and DMSO and untreated cells were also included as controls. After five days of incubation with the compounds, cell viability was determined using the XTT cell proliferation kit (Roche, Cat. No. 11 465 015 001). Following the XTT protocol, 4.5-24 hours after addition of the reagent, the plates were read in a μQuant 96-well plate spectrophotometer (Biotek Instruments Inc.) and the results analyzed to determine the IC50.

[7] = test system: non-small cell lung cancer cells EKVX; experiment: XTT cell proliferation assay, EKVX; format: cell-based, human; details: 5 days incubation, read-out: Antiproliferative activity, NSCLC EKVX
Procedure: [The procedure below names another cell line; the source lists this cell line under the same test.] as §1, §2

[8] = test system: human colon carcinoma cells HT-29; experiment: XTT cell proliferation assay, HT-29; format: cell-based; details: 5 days incubation, read-out: Antiproliferative activity, Colon HT-29
Procedure: as §1, §2

[9] = test system: WEHI 231 (mouse, B-cell lymphoma); experiment: Cell growth inhibition assay, WEHI231; format: cell-based; details: five days of incubation, XTT; read-out: IC50 WEHI231 (ms)
Procedure: as §3, §4, §5

WR19L (mouse, lymphoma) = experiment: Cell growth inhibition assay, WR19L; format: cell-based; details: five days of incubation, XTT; read-out: IC50 WR19L (ms)
Procedure: as §3, §4, §5

[10] = test system: human pancreatic cells SU-86-86; experiment: XTT cell proliferation assay, SU-86-86; format: cell-based; details: 5 days incubation, read-out: Antiproliferative activity, Pancreas SU-86-86
Procedure: as §1, §2

[11] = test system: non-small cell lung cancer cells H226; experiment: XTT cell proliferation assay, H226; format: cell-based, human; details: 5 days incubation, read-out: Antiproliferative activity, NSCLC H226
Procedure: [The procedure below names another cell line; the source lists this cell line under the same test.] as §1, §2

IC50 [1]: 170 nM
IC50 [2]: 160 nM
IC50 [3]: 210 nM
IC50 (leukemia cells HL60): 30 nM
IC50 [5]: 190 nM
IC50 [6]: 163 nM
IC50 [7]: 220 nM
IC50 [8]: 350 nM
IC50 [9]: 5.2 nM
IC50 (WR19L (mouse, lymphoma)): 82 nM
IC50 [11]: 410 nM
Structure (SMILES): FC1(F)Oc2ccc(-c3nc4c5cccnc5c5ncccc5c4[nH]3)cc2O1 [Compound 1]
inhibition of tumour growth, as measured by tumour size [4]: able to inhibit tumour growth
IC50 [10]: 180 nM
